Data taken from US10174081B2, “Antimicrobial peptides and uses therefore” (priority 2011, dated 2019).
Values after ≈ are worked out from the molar mass of the structure shown. Values joined by “and” are separate entries in the source; they are usually repeats but may differ in a detail not shown here. Equal values may be shown once. Square brackets hold non-standard residues; d marks the D form. Ends that are not written are not given here. Peptide text beside a SMILES is read from it.

How the values were obtained:
[1] = system: E. coli (ATCC 25922); assay: Anti-microbial performance against E. coli, with and without FICOLL 70; assay type: cell-based, Escherichia coli; details: for Average EC50, E. coli: unit inferred; for fold increase in potency against E. coli: 20% FICOLL 70 versus none; for Anti-microbial performance of ATRA-1A isomers (EC50) E coli (ATCC 25922): Example 5, Table 9
Protocol: In these assays, bacteria (1×10^5 CFU/ml) were incubated for 3 hours at 37° C. with varied concentrations of peptide in 10 mM phosphate buffer (pH 7.4) containing 0 to 30% FICOLL™ 70. The potencies of the peptide isomers were determined by plotting bacterial survival (%) as a function of log peptide concentration and fitting the data to a standard dose response equation. Each experiment was conducted at least three times, with the exception of experiments with 15% and 30% FICOLL™, which were only performed once.

[2] = system: P. aeruginosa biofilm; assay: Biofilm production (crystal violet) and growth (OD600) of P. aeruginosa in TSB; assay type: cell-based, Pseudomonas aeruginosa
Protocol: Biofilm production was measured as previously described (Durham-Colleran et al. (2010) Microb. Ecol., 59(3):457-465) with the following modifications. P. aeruginosa (1×10^5 CFU) in 200 μl of TSB media (Trypticase Soy Broth) was incubated with peptide at concentrations of 1.0, 0.1, and 0.01 μg/ml for 24 hours at 37° C. (Table 2). Optical density of the cultures (OD600 nm) at 24 hours was determined prior to staining as a measure of bacterial growth. Six wells were used for each peptide concentration (n=6). Biofilm production was measured using the crystal violet stain technique (Durham-Colleran et al., supra).

[3] = system: S. aureus biofilm; assay: Biofilm production (crystal violet) and growth (OD600) of S. aureus in TSB; assay type: cell-based, Staphylococcus aureus
Protocol: Biofilm production was measured as previously described (Durham-Colleran et al., supra) with the following modifications. […] The positive control was S. aureus in TSB with no peptide. Six wells were used for each peptide concentration (n=6). After 24 hours, the optical densities (OD) of the wells were taken at 600 nm to quantify […]. The biofilm production was measured using the crystal violet stain technique (Durham-Colleran et al., supra). All experiments were repeated at least twice.

[4] = system: C. albicans (ATCC 14053); assay: Anti-microbial assay (CFU survival, EC50) against C. albicans; assay type: cell-based, Candida albicans; details: for EC50 against C. albicans: 3 hours, 37° C., 10 mM sodium phosphate pH 7.4, inconsistent colony growth; for Inhibition of C. albicans: at 500 and 100 μg; for EC50: converted with molecular weight
Protocol: C. albicans (ATCC 14053) was grown up in 25 mL of Sabouraud Dextrose (SO) broth for 48 hours at 25° C., after which samples were aliquoted into 2 mL microcentrifuge tubes at 0.5 mL.
On a 96-well plate, 1×10^4 CFU per well of C. albicans were incubated with different peptide concentrations (in serial dilutions of 1:10 and 1:5) starting with […] in a solution of buffer containing 10 mM sodium phosphate at pH 7.4 (3 hours, 37° C.). Serial dilutions were then carried out in 1× Dulbecco's PBS, and samples were plated in triplicate on Sabouraud Dextrose Agar plates, incubated (25° C., 48 hours) and CFUs were counted. C. albicans survival at each peptide concentration was calculated as previously described (Amer et al., supra; de Latour et al., supra), based on the percentage of the number of colonies in each experimental plate relative to the average number of colonies observed for assay cultures lacking peptide. […] In the equation, “Top” and “Bottom” refer to the upper and lower boundaries, and were constrained to values <100% and >0%, respectively. For graphing purposes, samples that had no peptide were plotted at 10^−9 μg/ml peptide. EC50 values were determined by fitting the data from the anti-microbial assays to a standard sigmoidal dose-response curve. Errors were reported based on the standard deviation from the mean of the log EC50 values. 2. Results

[5] = system: P. aeruginosa (ATCC 19429); assay: Anti-microbial assay (CFU survival, EC50) against P. aeruginosa; assay type: cell-based, Pseudomonas aeruginosa; details: Example 6, FIG. 16; unit not given
Protocol: P. aeruginosa (ATCC 19429, American Type Culture Collection, Manassas, Va.) was grown in Nutrient Broth (Difco Laboratories, Detroit, Mich.) at 37° C. for 24 hours with shaking at 200 rpm. The CFU/ml was determined by growth on Nutrient Agar plates. For anti-microbial assays, frozen enumerated aliquots were thawed immediately before use.
Each experiment was repeated at least twice, and a representative experiment is shown, for clarity.

[6] = system: S. aureus (ATCC 25923); assay: Anti-microbial assay (CFU survival, EC50) against S. aureus; assay type: cell-based, Staphylococcus aureus; details: for EC50 against S. aureus, preliminary studies: Example 4, FIG. 10
Protocol: S. aureus (ATCC 25923, American Type Culture Collection, Manassas, Va.) was grown in Nutrient Broth (Difco Laboratories, Detroit, Mich.) at pH 7, 37° C., for 24 hours with shaking at 200 rpm. The overnight culture was frozen with 20% glycerol and stored at −80° C. The frozen stock was enumerated (CFU/ml) by dilution plating and growth on Nutrient Agar plates.
For anti-microbial assays, frozen enumerated aliquots were thawed and gently mixed immediately before use. […] Negative control wells contained bacteria with no peptide. […] The EC50 was calculated as previously described (de Latour et al., supra).
Errors were reported based on the standard deviation from the mean of the log10 EC50 values (Gordon et al., supra). 95% confidence intervals were used to determine whether points were statistically different at p=0.05.

[7] = system: B. cereus (ATCC 11778); assay: Anti-microbial performance against B. cereus, with and without FICOLL 70; assay type: cell-based; details: for fold increase in potency against B. cereus: 20% FICOLL 70 versus none
[8] = system: A. baumannii; details: Example 5, Table 9
Protocol: Anti-microbial activity was determined for each peptide isomer by enumerating the number of viable colony forming units after incubating bacteria in media containing varied concentrations of peptide.

[9] = system: P. aeruginosa; assay: Galleria mellonella infection by P. aeruginosa with AMP and antibiotic treatments; assay type: in vivo; details: single dose: 5 μg ciprofloxacin or 10 μg peptide
Protocol: Galleria mellonella (wax moth caterpillars) were obtained from Vanderhorst Wholesale (Saint Marys, Ohio). Eight to twelve caterpillars of equal size/weight were randomly assigned to each group. A 1 mL tuberculin syringe was used to inject 10 μl of 1×10^3 CFU/ml of P. aeruginosa into each caterpillar via the last left proleg. […] Caterpillar control groups included: injected with only PBS, ciprofloxacin, or AMPs. The insects were then observed daily for their survival status.

[10] = system: S. aureus; assay: Biofilm attachment assay; assay type: cell-based, Staphylococcus aureus; details: 1 μg/ml peptide, 1 hour, 37° C.
Protocol: Biofilm attachment assays were performed in 96-well microtiter plates (BD Falcon 353072) as previously described (Overhage et al., supra). Overnight cultures of S. aureus were grown in TSB to an OD600 of about 1.0. […] The plates were incubated (1 hour, 37° C.) to allow the S. aureus to adhere to the wells. The wells were washed and OD600 measurements were taken, as in the biofilm production experiments, and the average absorbance for each treatment was determined (n=16).

[11] = system: P. aeruginosa biofilm; details: Overhage et al.; cited from earlier work

Row | Molecule | Average EC50, E. coli ([1]; 0% FICOLL 70) [µg/mL] | Average EC50, E. coli ([1]; 5% FICOLL 70) [µg/mL] | Average EC50, E. coli ([1]; 10% FICOLL 70) [µg/mL] | Average EC50, E. coli ([1]; 15% FICOLL 70, performed once) [µg/mL] | Average EC50, E. coli ([1]; 20% FICOLL 70) [µg/mL] | fold increase in potency against E. coli [1] [fold] | Average EC50, E. coli ([1]; 30% FICOLL 70, performed once) [µg/mL] | Anti-microbial performance of ATRA-1A isomers (EC50) E coli (ATCC 25922) [1] [µg/mL] | EC50 with 20% FICOLL 70, E. coli [1] [µg/mL] | EC50 without FICOLL 70, E. coli [1] [µg/mL] | EC50 against C. albicans [4] [µg/mL] | Inhibition of C. albicans [4] | EC50 [4] [µM] | average EC50 against P. aeruginosa [5] | EC50 against S. aureus, preliminary studies [6] [µg/mL] | fold increase in potency against B. cereus [7] [fold] | EC50 with 20% FICOLL 70, B. cereus [7] [µg/mL] | EC50 without FICOLL 70, B. cereus [7] [µg/mL] | Anti-microbial performance of ATRA-1A isomers (EC50) A. baumannii [8] [µg/mL] | further results
1 | CC(C)C[C@@H](NC(=O)[C@@H](CCCCN)NC(=O)[C@@H](CCCCN)NC(=O)[C@@H](Cc1ccccc1)NC(=O)[C@@H](Cc1ccccc1)NC(=O)[C@@H](CCCCN)NC(=O)[C@@H](CCCCN)NC(=O)[C@@H](C)NC(=O)[C@@H](CCCNC(=N)N)NC(=O)[C@H](N)CCCCN)C(=O)N[C@H](CCCCN)C(N)=O [D-ATRA-1A] (H-[dK][dR][dA][dK][dK][dF][dF][dK][dK][dL][dK]-NH2; N-terminus assumed) | 1.3 | 0.71 | 0.24 | 0.1 | 0.085 | 13.66 | 0.01 | 1.302 | 0.0850 | 1.302 | 22.10 (≈ 15.6 µM) | consistently seen | 15.6 | 9.643 (CI 6.5 to 14.2) | 6.97 (≈ 4.91 µM) | 54.34 | 0.0406 | 2.330 | 9.73 | inhibiting biofilm growth, D- versus L-ATRA-1A ([2]; 1 μg/ml, FIG. 20): more effective at inhibiting biofilm growth; inhibiting biofilm growth, D- versus L-ATRA-1A ([3]; 1 μg/ml, FIG. 20): more effective at inhibiting biofilm growth; fold difference in activities of L- and D-ATRA-1A against S. aureus ([6]; D less effective than L): 30 fold; EC50 against S. aureus, two best data sets ([6]; Example 6, FIGS. 14 and 15, left and right panels): 26.53 µg/mL and 25.02 µg/mL
2 | O=C(O)c1cn(C2CC2)c2cc(N3CCNCC3)c(F)cc2c1=O [ciprofloxacin] | – | – | – | – | – | – | – | – | – | – | – | – | – | – | – | – | – | – | – | effect on survival of infected G. mellonella [9]: effective; survival of P. aeruginosa-infected G. mellonella ([9]; 1×10^3 CFU): 55%
3 | GLKLRFEFSKIKGEFLKTPEVRFRDIKLKDNRISVQR [Scrambled LL-37, reference compound] | – | – | – | – | – | – | – | – | – | – | – | – | – | – | – | – | – | – | – | attachment of S. aureus to polystyrene wells [10]: did not decrease; inhibition of biofilm formation ([2]; TSB, any concentration tested (up to 1 μg/ml)): no inhibition of biofilm formation; inhibition of biofilm formation ([3]; TSB, concentrations without anti-microbial activity): no inhibition of biofilm formation
4 | GLLRKGGEKIGEKLKKIGQKIKNFFQKLVPQPEQ [mCRAMP] | – | – | – | – | – | – | – | – | – | – | – | – | – | – | – | – | – | – | – | inhibitory effect on biofilm formation, previously known [11]: no inhibitory effect
5 | KRAKKFFKKLK-NH2 [ATRA-1A] | 2.9 | 1.6 | 0.86 | 0.64 | 0.42 | 10.66 | 0.29 | 4.323 | 0.420 | 4.232 | 33.38 | consistently seen | 23.5 | 14.22 (CI 10.4 to 19.4) | 0.27 | 14 | 5.207 | 72.41 | 53.25 | EC50 of AMPs against S. aureus ([6]; 3 hours, 37° C., 10 mM sodium phosphate pH 7.4, ± standard deviation): 1.45 ± 1.5 µg/mL; Anti-microbial performance of ATRA-1A isomers (EC50) S. aureus ([6]; Example 5, Table 9): 1.45 µg/mL; EC50 ([6]; converted from μg/ml with molecular weight of TFA salt): 0.62 µM
